Reference: patent US6630331B1, “Herbicides test method” (Hoechst Schering AgrEvo GmbH, priority 1997, dated 2003)
Blank lines part the entries; values can stand above or below the molecule they belong to.

How the values were obtained:
[1] = target: T1, recombinant L. japonicus pantothenate synthetase (Lotus japonicus, UniProt O24035); test: Substrate specificity of recombinant L. japonicus pantothenate synthetase; type: biochemical; conditions: for yield (%): relative to standard assay; for inhibition: analogue at 10-fold excess over pantoate
T1 construct: the processed recombinant protein (3-proline through 308-leucine) has a theoretical mass of 34,037.7 Da; made in house; host or cells: E. coli AT1371 (panC) transformed with pSKL
T1 sequence (O24035 3-308): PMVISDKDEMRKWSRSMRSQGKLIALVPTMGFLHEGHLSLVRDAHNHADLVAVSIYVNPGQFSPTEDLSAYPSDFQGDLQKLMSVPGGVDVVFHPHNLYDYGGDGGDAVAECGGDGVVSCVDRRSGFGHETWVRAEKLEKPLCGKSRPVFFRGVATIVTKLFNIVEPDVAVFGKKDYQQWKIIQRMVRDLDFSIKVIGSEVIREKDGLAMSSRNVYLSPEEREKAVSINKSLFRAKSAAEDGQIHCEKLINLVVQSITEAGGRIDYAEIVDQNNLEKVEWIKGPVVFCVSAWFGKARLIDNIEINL
Description: (§1) 2. The preferred assay mixture to measure the pyrophosphate liberated in the PS reaction after its conversion with inorganic pyrophosphatase to inorganic phosphate comprises 100 μmol Tris.HCl (pH 8.0), 10 μmol MgSO4, 5 μmol ATP, 10 μmol […], 0.5 μmol pantoate, 1.0 unit yeast inorganic pyrophosphatase and pantothenate synthetase in a total volume of 100 μl. After a suitable incubation period the PS reaction is terminated either
a) by the addition of 100 μlof a reagent mixture comprising 62.3 µg malachite green hydrochloride, 1.9 mg ammoniumheptamolybdate and 0.5% (v/v) of a suitable detergent (for example Triton X-100, Tween-80 or Tergitol NPX) in 1.88 N hydrochloric acid. The resulting colour complex is stabilised by the addition after 1 minute of 50 μl of a 26% (w/v) solution of trisodium citrate dihydrate in water and after an additional 45 minutes incubation at room temperature the intensity of the colour complex is determined by measuring the extinction at 620 nm. The amount of inorganic phosphate liberated in the PS reaction is determined by reference to a standard curve generated from suitable amounts of inorganic phosphate by using the difference of extinction at 620 nm between a complete PS assay mixture and a PS assay mixture lacking pantoate. Since there are 2 molecules of inorganic phosphate liberated for every molecule of pyrophosphate formed in the PS reaction, one unit of PS activity is defined as the amount of enzyme producing 2 nmoles of inorganic phosphate per minute, and specific activity is expressed as units per milligram of protein; or […]

purified E. coli PS = purified E. coli PS (Escherichia coli, UniProt P31663); conditions: cited from earlier work
purified E. coli PS, sequence (P31663 whole entry): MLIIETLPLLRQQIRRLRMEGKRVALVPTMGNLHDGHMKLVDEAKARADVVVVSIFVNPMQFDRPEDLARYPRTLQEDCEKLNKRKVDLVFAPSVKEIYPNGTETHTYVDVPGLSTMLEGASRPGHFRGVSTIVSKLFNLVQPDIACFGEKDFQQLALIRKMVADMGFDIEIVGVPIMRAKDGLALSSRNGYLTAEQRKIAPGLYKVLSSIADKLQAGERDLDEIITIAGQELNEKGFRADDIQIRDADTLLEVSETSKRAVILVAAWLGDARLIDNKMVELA

[2] = target: T2, recombinant Lotus pantothenate synthetase (Lotus japonicus, UniProt O24035); test: Activity of recombinant Lotus pantothenate synthetase in the presence of potential effectors; type: biochemical; design: the processed recombinant protein (3-proline through 308-leucine) has a theoretical mass of 34,037.7 Da; made in house; host or cells: E. coli AT1371 (panC) transformed with pSKL; conditions: for Final activity [%]: effector 1 mM, pantoate 0.1 mM, β-alanine 1.0 mM, % of activity without effector
Description: as §1, with “[…],” for “0.5 μmol pantoate,”, “yeast inorganic pyrophosphatase and pantothenate synthetase in a total volume of 100 μl.” left out
(§2) a) by the addition of 100 μlof a reagent mixture comprising 62.3 µg malachite green hydrochloride, 1.9 mg ammoniumheptamolybdate and 0.5% (v/v) of a suitable detergent (for example Triton X-100, Tween-80 or Tergitol NPX) in 1.88 N hydrochloric acid. The resulting colour complex is stabilised by the addition after 1 minute of 50 μl of a 26% (w/v) solution of trisodium citrate dihydrate in water and after an additional 45 minutes incubation at room temperature the intensity of the colour complex is determined by measuring the extinction at 620 nm. The amount of inorganic phosphate liberated in the PS reaction is determined by reference to a standard curve generated from suitable amounts of inorganic phosphate by using the difference of extinction at 620 nm between a complete PS assay mixture and a PS assay mixture lacking pantoate. Since there are 2 molecules of inorganic phosphate liberated for every molecule of pyrophosphate formed in the PS reaction, one unit of PS activity is defined as the amount of enzyme producing 2 nmoles of inorganic phosphate per minute, and specific activity is expressed as units per milligram of protein; or
Among these compounds are the intermediates of pantothenate biosynthesis as well as coenzyme A. As coenzyme A plays a prominent role in fatty acid synthesis and degradation, various acyl forms of coenzyme A and free fatty acids were also included. […] Table 7 lists the compounds tried and their effect on PS activity which is expressed percentage of activity in an assay without additions.

[3] = target: T2, recombinant Lotus pantothenate synthetase; test: Steady state kinetics of recombinant Lotus pantothenate synthetase
Description: as §1, §2
Km and Vmax constants for pantoate and […] were determined by measuring the effect of substrate concentration on the reaction rate.

[4] = substrate: CC(C)(CO)[C@@H](O)C(=O)O; test: purified protein, by the assay type; conditions: pH 8.0
Description: Km and Vmax constants for pantoate and ⊖-alanine were determined by measuring the effect of substrate concentration on the reaction rate.

[5] = substrate: NCCC(=O)O; test: purified protein, by the assay type; conditions: pantoate at 0.5 mM const., pH 8.0
[6] = analogue 1.0 mM added to pantoate 0.1 mM and β-alanine 1 mM
[7] = analogue 1.0 mM in place of pantoate, β-alanine 1 mM
[8] = analogue 10 mM in place of pantoate, β-alanine 1 mM
[9] = other: Eadie-Hofstee (EH), β-alanine at 20 mM const.
[10] = other: Lineweaver-Burk (LB), β-alanine at 20 mM const.
[11] = other: fit of rate equation for uncompetitive substrate inhibition

Molecule: CC1(C)COC(=O)[C@@H]1O [Pantoyl-lactone, pantoyl-lactone]
activity as substrate in the place of pantoate [1]: not active as substrates
activity (units) [1, 6]: 11.53 units
yield (%) [1, 6]: 92%
activity (units) [1, 7]: <0.1 units
yield (%) [1, 7]: <1%
activity (units) [1, 8]: 0.15 units
yield (%) [1, 8]: 1%
inhibition [1]: did not effect significant inhibition
activity toward pantoyl-lactone (purified E. coli PS): no activity
Final activity [%] [2]: 92%

Molecule: CC(=O)SCCNC(=O)CCNC(=O)[C@H](O)C(C)(C)COP(=O)(O)OP(=O)(O)OC[C@H]1O[C@@H](n2cnc3c(N)ncnc32)[C@H](O)[C@@H]1OP(=O)(O)O [Acetyl-coA]
activity at 100 µM ([2]; read-out: Final activity [%]): 93%

Molecule: CC(C)(COP(=O)(O)OP(=O)(O)OC[C@H]1O[C@@H](n2cnc3c(N)ncnc32)[C@H](O)[C@@H]1OP(=O)(O)O)[C@@H](O)C(=O)NCCC(=O)NCCS [CoenzymeA]
activity at 100 µM ([2]; read-out: Final activity [%]): 100%
activity at 200 µM ([2]; read-out: Final activity [%]): 106%
activity at 1000 µM ([2]; read-out: Final activity [%]): 109%

Molecule: CCCCCCCC/C=C\CCCCCCCC(=O)SCCNC(=O)CCNC(=O)[C@H](O)C(C)(C)COP(=O)(O)OP(=O)(O)OC[C@H]1O[C@@H](n2cnc3c(N)ncnc32)[C@H](O)[C@@H]1OP(=O)(O)O [Oleoyl-coA]
activity at 24 µM ([2]; read-out: Final activity [%]): 108%

Molecule: CC(C)(COP(=O)(O)OP(=O)(O)OC[C@H]1O[C@@H](n2cnc3c(N)ncnc32)[C@H](O)[C@@H]1OP(=O)(O)O)[C@@H](O)C(=O)NCCC(=O)NCCSC(=O)CC(=O)O [Malonyl-coA]
activity at 100 µM ([2]; read-out: Final activity [%]): 92%

Molecule: CCCCCC/C=C\CCCCCCCC(=O)SCCNC(=O)CCNC(=O)[C@H](O)C(C)(C)COP(=O)(O)OP(=O)(O)OC[C@H]1O[C@@H](n2cnc3c(N)ncnc32)[C@H](O)[C@@H]1OP(=O)(O)O [Palmitoleoyl-coA]
activity at 22 µM ([2]; read-out: Final activity [%]): 114%

optimal pantoate concentration ([3]; calculated from rate equation with fitted KS and K′S): 470 ± 30 µM
K′S ([3]; fit of rate equation for uncompetitive substrate inhibition): 5.33 ± 0.34 mM
kcat ([3]; from Vmax of the uncompetitive substrate inhibition fit): 0.625 ± 0.011 s⁻¹
pantoate concentration at which substrate inhibition becomes significant ([3]; substrate inhibition of Lotus PS): ≥ 400 µM
Molecule: CC(C)(CO)[C@@H](O)C(=O)O [Pantoate, (R)-pantoate]

Molecule: CC(C)(CO)C(=O)C(=O)O [Ketopantoate, ketopantoate]
activity as substrate in the place of pantoate [1]: not active as substrates
activity (units) [1, 6]: 12.18 units
yield (%) [1, 6]: 97%
activity (units) [1, 7]: 0 units
yield (%) [1, 7]: 0%
activity (units) [1, 8]: 0 units
yield (%) [1, 8]: 0%
inhibition [1]: did not effect significant inhibition
Final activity [%] [2]: 97%

Molecule: CCCCCCCCCCCCCCCC(=O)O [Palmitic acid]
activity at 2 µM ([2]; read-out: Final activity [%]): 133%
activity at 15 µM ([2]; read-out: Final activity [%]): 135%
activity at 60 µM ([2]; read-out: Final activity [%]): 115%

Molecule: CC(C)C(=O)C(=O)O [a-KIVA]
Final activity [%] [2]: 89%

Molecule: CCCCCC/C=C\CCCCCCCC(=O)O [Palmitoleic acid]
activity at 20 µM ([2]; read-out: Final activity [%]): 116%
activity at 100 µM ([2]; read-out: Final activity [%]): 100%

Molecule: CC(C)(CO)[C@@H](O)C(=O)NCCC(=O)O [Pantothenate]
activity at 1000 µM ([2]; read-out: Final activity [%]): 98%

Molecule: O=P(O)(O)OP(=O)(O)O [Pyrophosphate]
Final activity [%] [2]: 78%

B1: recombinant Lotus pantothenate synthetase (Lotus japonicus) (protein)
chain: PMVISDKDEMRKWSRSMRSQGKLIALVPTMGFLHEGHLSLVRDAHNHADLVAVSIYVNPGQFSPTEDLSAYPSDFQGDLQKLMSVPGGVDVVFHPHNLYDYGGDGGDAVAECGGDGVVSCVDRRSGFGHETWVRAEKLEKPLCGKSRPVFFRGVATIVTKLFNIVEPDVAVFGKKDYQQWKIIQRMVRDLDFSIKVIGSEVIREKDGLAMSSRNVYLSPEEREKAVSINKSLFRAKSAAEDGQIHCEKLINLVVQSITEAGGRIDYAEIVDQNNLEKVEWIKGPVVFCVSAWFGKARLIDNIEINL
Km [4, 9]: 44 (EH) μM
Vmax [4, 9]: 10.98 (EH)
Km [4, 10]: 45 (LB) μM
Vmax [4, 10]: 11.36 (LB)
kcat [4, 10]: 0.63 s⁻¹
Km [4, 11]: 42 ± 2 µM
Vmax [4, 11]: 11.03±0.19 units
Km ([5]; other: Eadie-Hofstee (EH)): 986 (EH) μM
Vmax ([5]; other: Eadie-Hofstee (EH)): 9.51 (EH)
Km ([5]; other: Lineweaver-Burk (LB)): 990 (LB) μM
Vmax ([5]; other: Lineweaver-Burk (LB)): 9.52 (LB)
kcat ([5]; other: Lineweaver-Burk (LB)): 0.54 s⁻¹
